Test results as given in PMC10850501 (Nature Communications, 2024).
“Also recorded” adds a separate entry of the source. Peptide text beside a SMILES is read from it.

How the values were obtained:
[1] = tested on: SARS-CoV-2 live virus (B.1 lineage), Vero E6 cells; assay type: cell-based
[2] = Intranasal repeat dose tolerability; assay type: in vivo, mouse (female C57BL/6); details: 25µL / nostril x 2 daily for 10 days in mice; histopathology H&E, MT
Method: Female C57BL/6 mice (15–20 g, 8–12 weeks old) were used for intranasal dosing of the peptide. As mentioned previously, 25 µl of hydrogels were injected into each of the nasal cavities twice daily at an interval of 8 hours for 10 days consecutively. The organs were harvested at the final time point, and sectioning was performed for histological evaluation. The plasma was also collected for quantifying peptide clearance in the bloodstream of the animal model.

[3] = Stability testing by HPLC / LC-MS; assay type: physicochemical
Method: Chromatographic analyses were performed on an analytical high-pressure liquid chromatography system (HPLC) with MassLynx software (Version 4.1). Runs were carried out on a Zorbax C3 column (5 µm, 150 mm × 4.6 mm) with a 1.0 mL/min flow rate. The mobile phase A was 0.1% trifluoroacetic acid in MilliQ water and mobile phase B was 0.1% trifluoroacetic acid in acetonitrile. Gradients started with mobile phase A at 75% and ran at a 1% ramp to 65% mobile phase B. Samples were diluted using 3:7 ACN:MilliQ water to a concentration of 1.0 mg/mL and then passed through a 0.22 μm syringe filter before injecting 30 μL of the sample. The column and autosampler were maintained at 40 °C and 25 °C, respectively. A Waters 2487 UV detector monitored 215 nm, and mass spectra were collected from 50 to 3000 AMU. The capillary voltage was 3.00 kV, cone voltage was 30.00 V, extractor voltage was 3.00 V, RF lens voltage was 0.1 V, source temperature was 100 °C, cone gas flow was 50.0 L/h, and desolvation gas flow was 500 L/h[30],[88] for the electrospray source.
[…] The stability of peptide samples was then measured using HPLC[87].

SARS-CoV-2 Spike-RBD = SARS-CoV-2 Spike-RBD (Severe acute respiratory syndrome coronavirus 2, UniProt P0DTC2); assay type: binding
[4] = Daily repeat IV dosing, 10 days (chronic PK/safety); assay type: in vivo, rat (female Wistar)
Method: (§1) Female Wistar rats (225–250 g, 8–12 weeks old) were observed and acclimatized for 2 weeks prior to running the studies. They were housed in a controlled environment with temperature at […] and 40–70% humidity. They were kept in an alternating 12-hour light/dark cycle, and food, and water was provided as pellets ad libitum. Female Wistar Rats were used for the pharmacokinetics and the drug clearance analysis from the blood. The two hydrogels (ESBP2 and ESBP3) at 10 mg/ml concentration were injected into the rats via the lateral tail vein. For subcutaneous implants, the substance was injected between the shoulder blades and above the lumbar vertebrae, 200 μL each, using a 25-gauge needle. The hydrogel bolus was prepared with 0.9% saline and was injected within 1–2 minutes. The volume injected was approximately 1% of the total body weight of the rat, which was calculated prior to the dosing. The initial blood draw was performed for baseline, and the subsequent blood collection was performed from the lateral vein using 25 g butterfly needles.
Female Wistar rats (225–250 g, 8–12 weeks old) were weighed and repeatedly dosed (1% by weight) IV with ESBP2 or ESBP3 daily at 10 mg/mL (~3 mM). Rat blood samples were collected daily prior to injection via tail vein. Post 10 days of treatment, animals were allowed to recover for 10 days and then sacrificed. Plasma was stored and analyzed as above. The body weight was recorded every day prior to the blood collection.

[5] = Acute IV pharmacokinetics; assay type: in vivo, rat (female Wistar); details: ESBP3 200μL (10 mg/mL) IV bolus, Wistar rats (n=8)
Method: as §1
Rat blood samples were collected at 0, 5, 15, 30 minutes, and 1, 2, 4, 8, and 24 hours post-injection timepoints for Acute PK and were aliquoted out into heparinized tubes to prevent coagulation and stored on top of ice packs. Blood collected in K2EDTA anticoagulant tubes was processed to plasma frozen via centrifugation at 13000 RCF for 10 minutes at 4 °C and stored at −80 °C till analysis using HPLC. The body weight was recorded every day prior to the blood collection.

[6] = Ultracentrifugation pellet / solid-state NMR of assemblies; assay type: physicochemical; details: 10 mg/mL, 150,000 RCF, 30 minutes, 4 °C
Method: To experimentally validate E1:ESBP3 peptide mixtures, solid-state NMR experiments were pursued. ^13C solid-state NMR measurements were conducted using cross-polarization magic angle spinning (^1H-^13C CPMAS) to evaluate sample structural order and structural differences between samples. The peptides were not isotopically enriched, so the ^13C signal was from the 1% natural abundance for ^13C.
After peptide dissolution at 10 mg/mL, the samples were concentrated by ultracentrifugation for 30 minutes in Bruker 3.22 mm NMR rotors at 4 °C and 150,000 RCF in Ultra-clear tubes of SW-41 Ti swinging bucket rotor fitted onto a Beckman Optima XPN-100 centrifuge. A 11.75 T magnet Bruker Avance III HD 500 spectrometer (500 MHz, ^1H NMR Larmor frequency) equipped with a room temperature 3.2 mm Bruker Low-E ^1H/^13C/^15N NMR probe was used for measurements. ^13C chemical shift referencing was conducted using adamantane referenced to tetramethylsilane. 1D ^13C cross-polarization magic angle spinning (CPMAS) spectra were collected using the standard Bruker cp pulse sequence. A 10 kHz magic angle spinning speed was used for all samples. The channels frequency for the optimization of the Hartmann-Hahn condition for ^1H and ^13C are 500.133 MHz and 125.771 MHz, respectively. A recycle delay time of 4 seconds (d1) and dwell time of 5 μs (DW) were used. Acquisition time was set to 10.24 ms. […]

CC[C@H](C)[C@H](NC(=O)[C@H](Cc1ccc(O)cc1)NC(=O)[C@@H](NC(=O)[C@H](CCCCN)NC(=O)[C@H](Cc1ccc(O)cc1)NC(=O)[C@H](CCC(N)=O)NC(=O)CNC(=O)[C@H](CCC(=O)O)NC(=O)[C@H](CC(C)C)NC(=O)[C@H](CO)NC(=O)[C@H](CC(C)C)NC(=O)[C@H](CO)NC(=O)[C@H](CC(C)C)NC(=O)[C@H](CO)NC(=O)[C@H](CC(C)C)NC(=O)[C@H](CO)NC(=O)[C@H](CC(C)C)NC(=O)[C@H](CO)NC(=O)[C@H](CC(C)C)NC(=O)[C@H](CO)NC(=O)[C@H](CCC(=O)O)NC(C)=O)[C@@H](C)O)C(=O)N[C@@H](CC(=O)O)C(=O)N[C@@H](CCCCN)C(=O)N[C@@H](CC(N)=O)C(=O)N[C@@H](CC(N)=O)C(=O)N[C@@H](Cc1c[nH]cn1)C(=O)N[C@@H](Cc1ccc(O)cc1)C(=O)N[C@@H](C)C(=O)N[C@@H](CCC(=O)O)C(=O)N[C@@H](CC(=O)O)C(=O)N[C@@H](CCC(=O)O)C(=O)N[C@@H](CCCNC(=N)N)C(=O)N[C@@H](Cc1ccc(O)cc1)C(=O)N[C@@H](CCCCN)C(N)=O [ESBP3] (Ac-ESLSLSLSLSLSLEGQYKTYIDKNNHYAEDERYK-NH2)
Comparative, Average [1]: 66.6154 | inhibition of live virus, in words [1]: dose-dependent inhibition of live virus | live virus plaque inhibition, in words [1]: no major differences | intranasal repeat dosing safety, in words [2]: no significant body weight changes or adverse organ morphology; also recorded: nasal turbinate showing no adverse effects; also recorded: no adverse toxicity | stability of lyophilized peptide, in words ([3]; -20 °C, 4 °C, 25 °C and 37°C over 10 weeks, HPLC/LC-MS): exceptional | stability, in words ([3]; lyophilized form and in formulation at a variety of temperatures over 12 weeks, HPLC): excellent stability | degradation in aqueous formulation, in words ([3]; over 10 weeks, LC-MS): minimal | ITC binding to Spike RBD, in words (SARS-CoV-2 Spike-RBD): ESBP3-Spike-binding events | ITC self-assembly, in words (SARS-CoV-2 Spike-RBD): supported spontaneous self-assembly | repeat IV dosing safety, in words ([4]; daily IV for 10 days, ~1 w% (10 mg/mL), 225-250 g adult rats): no adverse effect | significant changes in body weight (ESBP3 also animal behavior, adverse events, gross organ morphology) compared to carrier ([4]; daily repeated IV dosing for 10 days, rats): no | eliminated by [5]: ≤ 8 h | Cmax ([5]; female, rat, plasma, 2 mg, at 5 min, read-out: observed maximum concentration): ~550 µg/mL | AUC ([5]; female, rat, plasma, 2 mg, read-out: AUC): 395 µg·h/mL | ultracentrifuge pellet (assembly into nanofibers) [6]: no pellet
